Source: PubChem BioAssay AID1259411 (Chemical Carcinogenesis Research Information System (CCRIS), 2018)
Calls of active or inactive are those of the source. How the calls were made is not given here.

Test system: rodent carcinogenicity bioassays, tumor incidence
Assay: CCRIS carcinogenicity studies
Settings: Species: MOUSE
Outline: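 Archive of carcinogenicity, mutagenicity, tumor promotion and tumor inhibition results drawn from journals, NCI reports and other sources, expert-reviewed; covers 1985-2011 and is no longer updated.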

## c1ccc2c(c1)cc1ccc3cccc4ccc2c1c34
Strain/Sex: NIGP(S)/FEMALE, Route: SUBCUTANEOUS, Dose: 0, 0.5, 1 MG IN 1% AQUEOUS GELATIN INJECTED IN THE SCAPULAR REGION OF NEWBORN MICE ONCE (STUDY DURATION: 9 WK), Dose: 0, 0.5, 1 MG IN 1% AQUEOUS GELATIN INJECTED IN THE SCAPULAR REGION OF NEWBORN MICE ONCE (STUDY DURATION: 9 WK), Tumor Site: Type of Lesion: LUNG: ADENOMA
  carcinogen call: active; positive
Strain/Sex: NIGP(S)/FEMALE, Route: SUBCUTANEOUS, Dose: 0, 40, 62.5, 125, 250, 500, 1000 UG INJECTED IN THE SCAPULAR REGION OF NEWBORN MICE ONCE (STUDY DURATION: 9 WK), Dose: 0, 40, 62.5, 125, 250, 500, 1000 UG INJECTED IN THE SCAPULAR REGION OF NEWBORN MICE ONCE (STUDY DURATION: 9 WK), Tumor Site: Type of Lesion: LUNG: ADENOMA
  carcinogen call: active; positive
Strain/Sex: NIGP(S)/MALE, Route: SUBCUTANEOUS, Dose: 0, 0.5, 1 MG IN 1% AQUEOUS GELATIN INJECTED IN THE SCAPULAR REGION OF NEWBORN MICE ONCE (STUDY DURATION: 9 WK), Dose: 0, 0.5, 1 MG IN 1% AQUEOUS GELATIN INJECTED IN THE SCAPULAR REGION OF NEWBORN MICE ONCE (STUDY DURATION: 9 WK), Tumor Site: Type of Lesion: LUNG: ADENOMA
  carcinogen call: active; positive
Strain/Sex: NIGP(S)/MALE, Route: SUBCUTANEOUS, Dose: 0, 40, 62.5, 125, 250, 500, 1000 UG INJECTED IN THE SCAPULAR REGION OF NEWBORN MICE ONCE (STUDY DURATION: 9 WK), Dose: 0, 40, 62.5, 125, 250, 500, 1000 UG INJECTED IN THE SCAPULAR REGION OF NEWBORN MICE ONCE (STUDY DURATION: 9 WK), Tumor Site: Type of Lesion: LUNG: ADENOMA
  carcinogen call: active; positive
Strain/Sex: SENCAR/FEMALE, Route: DERMAL, Dose: 0, 12.6, 25.2, 50.2, 101, 202 UG/WK FOR 50-52 WK (STUDY DURATION: 1 YR), Dose: 0, 12.6, 25.2, 50.2, 101, 202 UG/WK FOR 50-52 WK (STUDY DURATION: 1 YR), Tumor Site: Type of Lesion: SKIN: CARCINOMA
  carcinogen call: active; positive
Strain/Sex: SENCAR/MALE, Route: DERMAL, Dose: 0, 12.6, 25.2, 50.5, 101, 202 UG/WK FOR 50-52 WK (STUDY DURATION: 1 YR), Dose: 0, 12.6, 25.2, 50.5, 101, 202 UG/WK FOR 50-52 WK (STUDY DURATION: 1 YR), Tumor Site: Type of Lesion: SKIN: CARCINOMA
  carcinogen call: active; positive
Strain/Sex: STRAIN-A/FEMALE, Route: GAVAGE, Dose: 0, 1, 2, 3 UMOL IN 0.1 ML COTTONSEED OIL 1/WK FOR 8 WK (STUDY DURATION: 26 WK), Dose: 0, 1, 2, 3 UMOL IN 0.1 ML COTTONSEED OIL 1/WK FOR 8 WK (STUDY DURATION: 26 WK), Tumor Site: Type of Lesion: LUNG: ADENOMA, FORESTOMACH: TUMOR
  carcinogen call: active; positive
Strain/Sex: STRAIN-A/FEMALE, Route: INTRAPERITONEAL, Dose: 0, 1, 2, 3 UMOL IN 0.1 ML COTTONSEED OIL 1/WK FOR 8 WK (STUDY DURATION: 26 WK), Dose: 0, 1, 2, 3 UMOL IN 0.1 ML COTTONSEED OIL 1/WK FOR 8 WK (STUDY DURATION: 26 WK), Tumor Site: Type of Lesion: LUNG: ADENOMA, FORESTOMACH: TUMOR
  carcinogen call: active; positive
Strain/Sex: STRAIN-A/FEMALE, Route: INTRATRACHEAL, Dose: 0, 0.5, 1 MG ON CHARCOAL POWDER INSTILLED 8 TIMES (STUDY DURATION: 13 WK), Dose: 0, 0.5, 1 MG ON CHARCOAL POWDER INSTILLED 8 TIMES (STUDY DURATION: 13 WK), Tumor Site: Type of Lesion: LUNG: SQUAMOUS CELL CARCINOMA OR ADENOCARCINOMA
  carcinogen call: active; positive
Strain/Sex: STRAIN-A/FEMALE, Route: ORAL, Dose: 0, 16, 98 PPM IN DIET FOR 260 D (STUDY DURATION: 260 D), Dose: 0, 16, 98 PPM IN DIET FOR 260 D (STUDY DURATION: 260 D), Tumor Site: Type of Lesion: LUNG: TUMOR, FORESTOMACH: TUMOR
  carcinogen call: active; positive
Strain/Sex: STRAIN-A/FEMALE, Route: SUBCUTANEOUS, Dose: 0, 0.5, 1 MG IN 1% AQUEOUS GELATIN INJECTED IN THE SCAPULAR REGION OF NEWBORN MICE ONCE (STUDY DURATION: 9 WK), Dose: 0, 0.5, 1 MG IN 1% AQUEOUS GELATIN INJECTED IN THE SCAPULAR REGION OF NEWBORN MICE ONCE (STUDY DURATION: 9 WK), Tumor Site: Type of Lesion: LUNG: ADENOMA
  carcinogen call: active; positive
Strain/Sex: STRAIN-A/FEMALE, Route: SUBCUTANEOUS, Dose: 0, 40, 62.5, 125, 250, 500, 1000 UG FOR 9 WK (STUDY DURATION: 9 WK), Dose: 0, 40, 62.5, 125, 250, 500, 1000 UG FOR 9 WK (STUDY DURATION: 9 WK), Tumor Site: Type of Lesion: LUNG: ADENOMA
  carcinogen call: active; positive
Strain/Sex: STRAIN-A/FEMALE, Route: SUBCUTANEOUS, Dose: 0, 40, 62.5, 125, 250, 500, 1000 UG INJECTED IN THE SCAPULAR REGION OF NEWBORN MICE ONCE (STUDY DURATION: 9 WK), Dose: 0, 40, 62.5, 125, 250, 500, 1000 UG INJECTED IN THE SCAPULAR REGION OF NEWBORN MICE ONCE (STUDY DURATION: 9 WK), Tumor Site: Type of Lesion: LUNG: ADENOMA
  carcinogen call: active; positive
Strain/Sex: STRAIN-A/MALE, FEMALE, Route: INTRAPERITONEAL, Dose: 2 MG, 1/WK, Tumor Site: Type of Lesion: PERITONEAL CAVITY: FIBROSARCOMA
  carcinogen call: active; positive
Strain/Sex: STRAIN-A/MALE,FEMALE, Route: INTRAPERITONEAL, Tumor Site: Type of Lesion: PERITONEAL CAVITY: FIBROSARCOMA
  carcinogen call: active; positive
Strain/Sex: STRAIN-A/MALE, Route: INTRAPERITONEAL, Dose: 0-200 MG/KG IN TRICAPRYLIN ONCE (STUDY DURATION: 8 MO), Tumor Site: Type of Lesion: LUNG: ADENOMA
  carcinogen call: active; positive
Strain/Sex: STRAIN-A/MALE, Route: INTRAPERITONEAL, Dose: 0, 5, 10, 50, 100, 200 MG/KG BW ONCE (STUDY DURATION: 8 MO), Dose: 0, 5, 10, 50, 100, 200 MG/KG BW ONCE (STUDY DURATION: 8 MO), Tumor Site: Type of Lesion: LUNG: ADENOMA
  carcinogen call: active; positive
Strain/Sex: STRAIN-A/MALE, Route: SUBCUTANEOUS, Dose: 0, 0.5, 1 MG IN 1% AQUEOUS GELATIN INJECTED IN THE SCAPULAR REGION OF NEWBORN MICE ONCE (STUDY DURATION: 9 WK), Dose: 0, 0.5, 1 MG IN 1% AQUEOUS GELATIN INJECTED IN THE SCAPULAR REGION OF NEWBORN MICE ONCE (STUDY DURATION: 9 WK), Tumor Site: Type of Lesion: LUNG: ADENOMA
  carcinogen call: active; positive
Strain/Sex: STRAIN-A/MALE, Route: SUBCUTANEOUS, Dose: 0, 40, 62.5, 125, 250, 500, 1000 UG FOR 9 WK (STUDY DURATION: 9 WK), Dose: 0, 40, 62.5, 125, 250, 500, 1000 UG FOR 9 WK (STUDY DURATION: 9 WK), Tumor Site: Type of Lesion: LUNG: ADENOMA
  carcinogen call: active; positive
Strain/Sex: STRAIN-A/MALE, Route: SUBCUTANEOUS, Dose: 0, 40, 62.5, 125, 250, 500, 1000 UG INJECTED IN THE SCAPULAR REGION OF NEWBORN MICE ONCE (STUDY DURATION: 9 WK), Dose: 0, 40, 62.5, 125, 250, 500, 1000 UG INJECTED IN THE SCAPULAR REGION OF NEWBORN MICE ONCE (STUDY DURATION: 9 WK), Tumor Site: Type of Lesion: LUNG: ADENOMA
  carcinogen call: active; positive
Strain/Sex: SWISS/FEMALE, Route: DERMAL, Dose: 0, 1, 4, 8 NMOL IN 100 µL ACETONE 2/WK FOR 40 WK (STUDY DURATION: 48 WK), Dose: 0, 1, 4, 8 NMOL IN 100 µL ACETONE 2/WK FOR 40 WK (STUDY DURATION: 48 WK)
  carcinogen call: inactive; negative
